Inconclusive results and toxic doses are left out.
Tested on: P388 leukemia ip, CD2F1 mice, survival T/C
Assay: NCI In Vivo Anticancer Drug Screen. Data for tumor model P388 Leukemia (intraperitoneal) in CD2F1 (CDF1) mice
Conditions: endpoint: median survival time, higher = longer survival
Outline: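 Mice carrying the transplanted tumor received test compound or vehicle. Survival was recorded in each group, and the value is the treated-group measurement divided by that of the vehicle-treated control group.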

[1] = dose: 100.0 mg/kg/injection, schedule: Q04DX003 (ip), vehicle: saline with Tween-80
[2] = dose: 200.0 mg/kg/injection, schedule: Q04DX003 (ip), vehicle: saline with Tween-80
[3] = dose: 100.0 mg/kg/injection, schedule: Q01DX009 (ip), vehicle: saline
[4] = dose: 50.0 mg/kg/injection, schedule: Q01DX005 (ip), vehicle: saline with Tween-80
[5] = dose: 100.0 mg/kg/injection, schedule: Q01DX005 (ip), vehicle: saline with Tween-80
[6] = dose: 200.0 mg/kg/injection, schedule: Q01DX005 (ip), vehicle: saline with Tween-80
[7] = dose: 50.0 mg/kg/injection, schedule: Q01DX009 (ip), vehicle: saline with Tween-80
[8] = dose: 100.0 mg/kg/injection, schedule: Q01DX009 (ip), vehicle: saline with Tween-80
[9] = dose: 200.0 mg/kg/injection, schedule: Q01DX009 (ip), vehicle: saline with Tween-80

In the case of `CCNNC(=O)[C@@H]1[C@H](c2cc(OC)c(OC)c(OC)c2)c2cc3c(cc2[C@H](O)[C@H]1CO)OCO3`, the T/C [1] is reported as 109 % of control, the T/C [2] is reported as 113 % of control and the T/C (dose: 400.0 mg/kg/injection, schedule: Q04DX003 (ip), vehicle: saline with Tween-80) is reported as 104 % of control.
With `CCOC(=O)c1c(N)ssc1=S` the T/C (dose: 50.0 mg/kg/injection, schedule: Q01DX009 (ip), vehicle: saline) was 100 % of control, the T/C [3] was 97 % of control and the T/C (dose: 200.0 mg/kg/injection, schedule: Q01DX009 (ip), vehicle: saline) was 105 % of control.
For `CC(C)c1cccc(C(C)C)c1NC(=O)CCc1n[nH]c(=S)o1`, the T/C [4] was 105 % of control, the T/C [5] was 106 % of control and the T/C [6] was 105 % of control.
With `COC(=O)C1c2cc3c(c(O)c2C(OC)CC1(C)O)C(=O)c1c(O)cc2c(c1C3=O)OC1OC2(C)C(O)C(N(C)C)C1O` (stereo not drawn) the T/C (dose: 3.16 mg/kg/injection, schedule: Q01DX009 (ip), vehicle: other) was 156 % of control, the T/C (dose: 5.0 mg/kg/injection, schedule: Q01DX009 (ip), vehicle: other) was 161 % of control and the T/C (dose: 6.25 mg/kg/injection, schedule: Q01DX009 (ip), vehicle: other) was 168 % of control. For the same compound, the T/C (dose: 10.0 mg/kg/injection, schedule: Q01DX009 (ip), vehicle: other) was 171 % of control, the T/C (dose: 12.5 mg/kg/injection, schedule: Q01DX009 (ip), vehicle: other) was 168 % of control and the T/C (dose: 20.0 mg/kg/injection, schedule: Q01DX009 (ip), vehicle: other) was 171 % of control. For the same compound, the T/C (dose: 25.0 mg/kg/injection, schedule: Q01DX009 (ip), vehicle: other) was 198 % of control and the T/C (dose: 40.0 mg/kg/injection, schedule: Q01DX009 (ip), vehicle: other) was 117 % of control.
With `CN(C)CCOc1cnc2ccc(Cl)cc2n1` the T/C (dose: 50.0 mg/kg/injection, schedule: Q01DX005 (ip), vehicle: Klucel (hydroxypropylcellulose) (HPC)) was 88 % of control and the T/C (dose: 100.0 mg/kg/injection, schedule: Q01DX005 (ip), vehicle: Klucel (hydroxypropylcellulose) (HPC)) was 88 % of control.
In the case of `O=C(Nc1ccc2ccccc2c1)C1C(=O)C(=O)N(c2ccc3ccccc3c2)C1=O` (stereo not drawn), the T/C (dose: 50.0 mg/kg/injection, schedule: Q01DX009 (ip), vehicle: Klucel (hydroxypropylcellulose) (HPC)) is reported as 106 % of control, the T/C (dose: 100.0 mg/kg/injection, schedule: Q01DX009 (ip), vehicle: Klucel (hydroxypropylcellulose) (HPC)) is reported as 106 % of control and the T/C (dose: 200.0 mg/kg/injection, schedule: Q01DX009 (ip), vehicle: Klucel (hydroxypropylcellulose) (HPC)) is reported as 108 % of control.
For `COC1=CC(=O)C(O)=C/C1=C\C=C\c1ccccc1`, the T/C (dose: 2.5 mg/kg/injection, schedule: Q01DX009 (ip), vehicle: saline with Tween-80) was 107 % of control, the T/C (dose: 5.0 mg/kg/injection, schedule: Q01DX009 (ip), vehicle: saline with Tween-80) was 104 % of control and the T/C (dose: 10.0 mg/kg/injection, schedule: Q01DX009 (ip), vehicle: saline with Tween-80) was 110 % of control.
`COc1ccc2nc3cc(Cl)ccc3c(Nc3ccc(O)c(CN(CCCl)CCCl)c3)c2c1` was tested, and the T/C (dose: 0.06 mg/kg/injection, schedule: Q01DX009 (ip), vehicle: saline with Tween-80) was 98 % of control, the T/C (dose: 0.09 mg/kg/injection, schedule: Q01DX009 (ip), vehicle: saline with Tween-80) was 89 % of control and the T/C (dose: 0.44 mg/kg/injection, schedule: Q01DX009 (ip), vehicle: saline) was 150 % of control. The T/C (dose: 0.6 mg/kg/injection, schedule: Q01DX009 (ip), vehicle: saline with Tween-80) was 154 % of control, the T/C (dose: 0.66 mg/kg/injection, schedule: Q01DX009 (ip), vehicle: saline) was 160 % of control and the T/C (dose: 1.0 mg/kg/injection, schedule: Q01DX009 (ip), vehicle: saline) was 155 % of control. The T/C (dose: 1.5 mg/kg/injection, schedule: Q01DX009 (ip), vehicle: saline) was 175 % of control.
In the case of `CC(=O)c1ccc(NC(=O)C#N)cc1`, the T/C (dose: 7.5 mg/kg/injection, schedule: Q01DX005 (ip), vehicle: saline with Tween-80) is reported as 104 % of control and the T/C (dose: 15.0 mg/kg/injection, schedule: Q01DX005 (ip), vehicle: saline with Tween-80) is reported as 110 % of control.
`N#Cc1ccccc1S(=O)(=O)O` was tested, and the T/C (dose: 100.0 mg/kg/injection, schedule: Q01DX001 (ip), vehicle: saline with Tween-80) was 96 % of control, the T/C (dose: 200.0 mg/kg/injection, schedule: Q01DX001 (ip), vehicle: saline with Tween-80) was 90 % of control and the T/C (dose: 400.0 mg/kg/injection, schedule: Q01DX001 (ip), vehicle: saline with Tween-80) was 102 % of control.
For `C[C@@]1(O)CC[C@@]23OC(=O)CC2C[C@@H]1O3` (stereo partly drawn), the T/C (dose: 100.0 mg/kg/injection, schedule: Q01DX001 (ip), vehicle: saline) was 102 % of control, the T/C (dose: 200.0 mg/kg/injection, schedule: Q01DX001 (ip), vehicle: saline) was 98 % of control and the T/C (dose: 400.0 mg/kg/injection, schedule: Q01DX001 (ip), vehicle: saline) was 104 % of control.
`COC1=CCC2=C(CC[C@H]3[C@H]2CCP3(C)=S)C1` (stereo partly drawn) was tested, and the T/C (dose: 50.0 mg/kg/injection, schedule: Q01DX005 (ip), vehicle: saline + Tween-80 + alcohol) was 115 % of control, the T/C (dose: 100.0 mg/kg/injection, schedule: Q01DX005 (ip), vehicle: saline + Tween-80 + alcohol) was 106 % of control and the T/C (dose: 200.0 mg/kg/injection, schedule: Q01DX005 (ip), vehicle: saline + Tween-80 + alcohol) was 101 % of control.
In the case of `C/C=C1\CN(C)C2Cc3c([nH]c4ccccc34)C(c3c(OC)ccc4c5c([nH]c34)C3(C(=O)OC)CC4CC(CC)C3N(CC5)C4)CC1C2C(=O)OC` (stereo not drawn), the T/C (dose: 12.5 mg/kg/injection, schedule: Q01DX009 (ip), vehicle: saline with Tween-80) is reported as 115 % of control, the T/C (dose: 25.0 mg/kg/injection, schedule: Q01DX009 (ip), vehicle: saline with Tween-80) is reported as 106 % of control and the T/C [7] is reported as 106 % of control. The T/C [8] was 91 % of control.
In the case of `COC(=O)C1C(=O)C2CCC1C(=O)C2C(=O)OC` (stereo not drawn), the T/C [7] is reported as 93 % of control, the T/C [8] is reported as 93 % of control and the T/C [9] is reported as 98 % of control.
`CCCCCCCCCCCCCCCCS(=O)(=O)c1ccc(S(=O)(=O)N/N=c2/sc3ccccc3n2C)cc1C(=O)O` was tested, and the T/C (dose: 6.25 mg/kg/injection, schedule: Q01DX009 (ip), vehicle: saline) was 103 % of control, the T/C (dose: 12.5 mg/kg/injection, schedule: Q01DX009 (ip), vehicle: saline) was 97 % of control and the T/C (dose: 25.0 mg/kg/injection, schedule: Q01DX009 (ip), vehicle: saline) was 94 % of control. For the same compound, the T/C [3] was 88 % of control.
For `c1nc(N2CCCCC2)c2c3c(sc2n1)CCCC3`, the T/C [4] was 100 % of control, the T/C [5] was 91 % of control and the T/C [6] was 96 % of control.
In the case of `Cc1ccc(S(=O)(=O)NCCCl)cc1`, the T/C (dose: 25.0 mg/kg/injection, schedule: Q04DX003 (ip), vehicle: saline with Tween-80) is reported as 104 % of control, the T/C (dose: 50.0 mg/kg/injection, schedule: Q04DX003 (ip), vehicle: saline with Tween-80) is reported as 99 % of control and the T/C [1] is reported as 114 % of control. The T/C [2] was 98 % of control.
For `CC(C)(C)OC(=O)N/C=C/c1ccccc1`, the T/C (dose: 100.0 mg/kg/injection, schedule: Q04DX002 (ip), vehicle: suspension in saline) was 101 % of control, the T/C (dose: 200.0 mg/kg/injection, schedule: Q04DX002 (ip), vehicle: suspension in saline) was 92 % of control and the T/C (dose: 400.0 mg/kg/injection, schedule: Q04DX002 (ip), vehicle: suspension in saline) was 94 % of control.
For `NC(=O)CC1Cc2ccc3ccc(O)cc3c2C1=O` (stereo not drawn), the T/C (dose: 12.5 mg/kg/injection, schedule: Q01DX009 (ip), vehicle: distilled water + Tween-80) was 100 % of control, the T/C (dose: 25.0 mg/kg/injection, schedule: Q01DX009 (ip), vehicle: distilled water + Tween-80) was 97 % of control and the T/C (dose: 50.0 mg/kg/injection, schedule: Q01DX009 (ip), vehicle: distilled water + Tween-80) was 93 % of control. The T/C (dose: 100.0 mg/kg/injection, schedule: Q01DX009 (ip), vehicle: distilled water + Tween-80) was 94 % of control and the T/C (dose: 200.0 mg/kg/injection, schedule: Q01DX009 (ip), vehicle: distilled water + Tween-80) was 95 % of control.
With `O=S(=O)(c1ccccc1)[C@H]1[C@@H]2O[C@@H]2C[C@@H]1O` the T/C (dose: 60.0 mg/kg/injection, schedule: Q01DX005 (ip), vehicle: saline) was 104 % of control, the T/C (dose: 120.0 mg/kg/injection, schedule: Q01DX005 (ip), vehicle: saline) was 103 % of control and the T/C (dose: 240.0 mg/kg/injection, schedule: Q01DX005 (ip), vehicle: saline) was 98 % of control.
With `NC(=O)C(Cl)(Cl)Cl` the T/C [8] was 100 % of control, the T/C [9] was 99 % of control and the T/C (dose: 400.0 mg/kg/injection, schedule: Q01DX009 (ip), vehicle: saline with Tween-80) was 99 % of control.
In the case of `COC(=O)c1cc(=O)n(-c2ccccc2OC)c(SC)n1`, the T/C (dose: 25.0 mg/kg/injection, schedule: Q04DX002 (ip), vehicle: Klucel (hydroxypropylcellulose) (HPC)) is reported as 110 % of control, the T/C (dose: 50.0 mg/kg/injection, schedule: Q04DX002 (ip), vehicle: Klucel (hydroxypropylcellulose) (HPC)) is reported as 100 % of control and the T/C (dose: 100.0 mg/kg/injection, schedule: Q04DX002 (ip), vehicle: Klucel (hydroxypropylcellulose) (HPC)) is reported as 103 % of control.

Source: PubChem BioAssay AID330 (DTP/NCI, 2004)
